These results are taken from PubChem BioAssay (NCI).

The structures appear in SMILES notation.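 Method: 48-hour compound exposure of cells in 96-well plates, five concentrations, linear interpolation of endpoints. TGI denotes the concentration required for complete inhibition of growth.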

What all share (assay): DTP human tumour cell line panel, 48 h
For test [1], the system named is NCI/ADR-RES ovarian.
For test [2], the system named is DU-145 prostate.
The test system of test [3] is MDA-MB-435.
Test [4] concerns TK-10 renal.
Test [5] relates to MDA-MB-231 breast.
Test [6] concerns SF-539 CNS.
The test system of test [7] is CAKI-1 renal.
The test system of test [8] is RXF 393 renal.
For test [9], the system named is OVCAR-4 ovarian.
In test [10] the test system is HOP-62 NSCLC.
Test [11] relates to HCC-2998 colon.
Test [12] relates to SW-620 colon.

With `CCn1cnc2c(NC(C)=O)ncnc21`, the TGI in test [1], in test [2], in [3], in [4], in [5] and in test [6] was more than 100 µM in each case. Also, the TGI in test [7], in [8], in [9], in [10], in [11] and in [12] was more than 100 µM each time.

As for `c1ccc2c(c1)C(=Nc1ccc(N=C3c4ccccc4-c4ccccc43)cc1)c1ccccc1-2`, the TGI in test [1], in test [2], in test [3], in test [4], in [5] and in test [7] was more than 100 µM each time. Further, the TGI in test [8], in test [9], in [10], in test [11] and in test [12] was more than 100 µM each time.

As for `[N-]=[N+]=NC1=C(c2ccccc2)C(=O)c2cccc3cccc1c23`, the TGI was more than 100 µM in [1]; more than 100 µM in test [2]; more than 100 µM in test [3]; 74.6 µM in test [4]; 91.1 µM in test [6]; more than 100 µM in [7]. The concentration for total growth inhibition (TGI) in test [8] is 60.6 µM; in test [9], more than 100 µM; in [10], 91.1 µM; in test [11] it was more than 100 µM; in test [12] it was more than 100 µM.

As to `COC(=O)C1CCC(=O)N1C(c1ccc2c(c1)OCO2)c1ccc2c(c1)OCO2` (configuration not stated), the TGI in test [1], in test [2], in test [3], in [4], in test [5] and in test [6] was more than 100 µM each time. For the same compound, the TGI in test [7], in test [9], in test [10], in test [11] and in test [12] was more than 100 µM each time.

Take `CCCCCCCC/C=C/CCCCCCCC1CC(O)C(=O)O1` (configuration not stated): the total growth inhibition concentration (TGI) in test [1], in test [2], in [3], in test [4], in test [5] and in [9] was more than 100 µM throughout. Also, the TGI in test [10], in test [11] and in [12] was more than 100 µM in each case.

For the compound `O=C1O[C@H]2[C@@H]3OC(=O)c4cc(O)c(O)c(O)c4-c4c(cc(O)c(O)c4O)C(=O)OC[C@H]2O[C@@H](OC(=O)c2cc(O)c(O)c(O)c2)[C@@H]3OC(=O)c2cc(O)c(O)c3c2[C@@H]2C1=CC(=O)C(O)(O)C2(O)O3` (some centres not stated), the TGI is more than 100 µM in [1]; more than 100 µM in test [2]; 32.2 µM in [3]; 40.2 µM in [5]; 27.5 µM in [7]; more than 100 µM in [8]. Besides, the TGI in test [9] was 39.4 µM; in [10], more than 100 µM; in test [11] it was more than 100 µM; in [12] it was 38.5 µM.

`CC1(C)CC[C@]2(C(=O)O)CC[C@]3(C)C(=CC[C@@H]4[C@@]5(C)CC[C@H](OC6OC(CO)C(O)C(O)C6OC6OC(CO)C(O)C(O)C6O)C(C)(C)[C@@H]5CC[C@]43C)[C@@H]2C1` (some centres not stated): the TGI in test [1] is 49.2 µM; in [2], 31.4 µM; in [3], 35.7 µM; in test [5], 51.9 µM; in test [7], 35.4 µM; in test [8], 37.3 µM. Moreover, the TGI in test [9] is 30.5 µM; in test [10], 32.7 µM; in test [11], 36.2 µM; in [12], 48.3 µM.

In the case of `Cc1cc(C#N)c(Nc2c(C)cccc2[N+](=O)[O-])s1`, the total growth inhibition concentration (TGI) in test [1] was 82.3 µM; in test [2], more than 100 µM; in test [3] it was more than 100 µM; in [5] it was 79.4 µM; in [6], more than 100 µM; in test [7], more than 100 µM. Also, the total growth inhibition concentration (TGI) in [8] was 55.4 µM; in test [9] it was more than 100 µM; in test [10] it was 75.2 µM; in [11] it was more than 100 µM; in test [12], more than 100 µM.

Take `COc1cc(OC)nc(Nc2c(C#N)c3nc4ccccc4n3c3ccccc23)n1`: the TGI in test [1] is more than 100 µM; in [2], more than 100 µM; in test [3], more than 100 µM; in test [4], 74.2 µM; in test [6], 35.1 µM; in test [7] it was more than 100 µM. Also, the TGI is 99.2 µM in test [8]; 78.7 µM in [9]; 35 µM in [10]; more than 100 µM in test [11]; more than 100 µM in test [12].

In the case of `CCc1n[nH]c(=O)n1NC(=O)/C=C\C(=O)O`, the TGI in test [1], in test [2], in test [3], in test [4], in test [5] and in test [6] was more than 100 µM throughout. Moreover, the TGI in test [7], in test [8], in [9], in test [10] and in test [11] was more than 100 µM in each case.

In the case of `CN(C(=O)c1cccs1)C(=S)N1CCN(c2ccccc2)CC1`, the TGI in test [2], in [3], in [4], in test [5], in test [8] and in test [9] was more than 100 µM throughout. Moreover, the TGI in test [11] and in test [12] was more than 100 µM each time.

As for `CCOC(=O)C1(Cc2ccccc2)Cc2ccccc2C1=O` (configuration not stated), the TGI in test [1] is 62.8 µM; in [2] it was more than 100 µM; in test [3], 45.3 µM; in test [4], more than 100 µM; in test [5] it was more than 100 µM; in [6], 96.2 µM. For the same compound, the TGI in [9], in [10], in [11] and in test [12] was more than 100 µM throughout.

`COc1cc(/C=C(\C#N)c2ccccn2)cc(Br)c1O`: the TGI in [1] was 75 µM; in [2], more than 100 µM; in [4], more than 100 µM; in test [6], more than 100 µM; in test [7], more than 100 µM; in test [8] it was more than 100 µM. The total growth inhibition concentration (TGI) in test [9], in test [10], in test [11] and in test [12] was more than 100 µM throughout.

In the case of `N#CC(c1cc(Cl)ncn1)c1nc2ccccc2s1` (configuration not stated), the TGI in [1] was 15.2 µM; in [2], 24.2 µM; in test [3], 62 µM; in test [4], more than 100 µM; in test [5], 60.4 µM; in test [6], 50.5 µM. In addition, the TGI in test [7] worked out at 82.1 µM; in test [8], 42.5 µM; in [9] it was 91 µM; in test [10] it was 43.8 µM; in [12] it was 22 µM.

For `CC(=O)Nc1ccc(-c2nc3ccccc3s2)cc1O`, the TGI in test [1] was 64.4 µM; in test [2], more than 100 µM; in [3], more than 100 µM; in [4] it was more than 100 µM; in test [5] it was more than 100 µM; in [7], more than 100 µM. For the same compound, the TGI in test [8], in test [9], in test [10], in test [11] and in test [12] was more than 100 µM each time.

Turning to `COc1cccc(-n2c(N)c(-c3nc4cc(C(F)(F)F)ccc4s3)c3ccc([N+](=O)[O-])cc3c2=O)c1`, the concentration for total growth inhibition (TGI) in test [1], in test [2], in test [3], in test [4], in [5] and in test [7] was more than 100 µM throughout. Besides, the TGI in [9], in test [10] and in test [11] was more than 100 µM each time.

As for `C[C@]12CCC(=O)C=C1CC[C@@H]1C2CC[C@]2(C)Nc3c(ncn3-c3ccc(F)cc3)CC12` (some centres not stated), the TGI in test [2] was more than 100 µM; in test [3], 42.5 µM; in test [4], more than 100 µM; in test [5] it was more than 100 µM; in [6] it was 34.3 µM; in test [7], more than 100 µM. For the same compound, the TGI is 30.6 µM in test [8]; more than 100 µM in test [9]; more than 100 µM in test [10]; 88.8 µM in test [11]; more than 100 µM in test [12].

On to `Cn1cnc([N+](=O)[O-])c1Sc1nc(N)nc2c1ncn2Cc1ccccc1`, for which the TGI was more than 100 µM in test [1]; more than 100 µM in test [2]; 72.4 µM in test [3]; 41.9 µM in [4]; 41.3 µM in test [5]; 31.1 µM in [7]. In addition, the TGI is 43.7 µM in [8]; more than 100 µM in test [9]; 55.4 µM in test [10]; 29.4 µM in test [11]; 78.2 µM in test [12].

Turning to `COC(=O)c1scc(N)c1-n1ccc(=O)[nH]c1=O`, the TGI in test [1], in test [2], in [3], in [4], in test [5] and in test [6] was more than 100 µM throughout. Further, the concentration for total growth inhibition (TGI) in [7], in [8], in test [9], in test [11] and in test [12] was more than 100 µM each time.

As for `CCCCOC(=O)C1CN2C(=NC1(C(F)(F)F)C(F)(F)F)Sc1ccccc12` (configuration not stated), the TGI in test [1], in test [2], in test [4], in test [5], in [6] and in test [7] was more than 100 µM throughout. Besides, the TGI in test [8] is 63.4 µM; in [9] it was more than 100 µM; in test [10], more than 100 µM; in test [12], more than 100 µM.

For the compound `CN1CCN(c2ccc(-n3cc(C(=O)O)c(=O)c4cc(F)c(N5CCN(C)CC5)cc43)nc2)CC1`, the TGI in test [1], in test [2], in test [3], in [4], in test [5] and in test [6] was more than 100 µM throughout. In addition, the TGI in test [7], in [8], in test [9], in test [10] and in [12] was more than 100 µM each time.

In the case of `C=C(C(=O)O)[C@@H]1C[C@@H]2O[C@H]1CC(C)=CCC/C(C)=C/CC[C@@]2(C)O`, the TGI in test [1], in test [2], in test [3], in test [4], in test [5] and in test [6] was more than 100 µM each time. For the same compound, the total growth inhibition concentration (TGI) in test [7], in test [8], in test [9], in test [11] and in test [12] was more than 100 µM each time.

Consider `CCOC(=O)c1cc(-c2ccc(Cl)cc2)c([N+](=O)[O-])n1C`, for which the total growth inhibition concentration (TGI) in test [2] was more than 10 µM; in test [3] it was more than 10 µM; in test [4], more than 10 µM; in [5] it was 5.8 µM; in test [6], more than 10 µM; in test [9], more than 10 µM. In test [11], this compound yielded a total growth inhibition concentration (TGI) of more than 10 µM.

As for `NC(CCCCNC(=O)C(Cc1ccccc1)NC(=O)OCc1ccccc1)C(=O)NC(CCCCNC(=O)C(Cc1ccccc1)NC(=O)OCc1ccccc1)C(=O)NC(CCCCNC(=O)C(Cc1ccccc1)NC(=O)OCc1ccccc1)C(=O)NC(CCCCNC(=O)C(Cc1ccccc1)NC(=O)OCc1ccccc1)C(=O)NC(CCCCNC(=O)C(Cc1ccccc1)NC(=O)OCc1ccccc1)C(=O)NC(CCCCNC(=O)C(Cc1ccccc1)NC(=O)OCc1ccccc1)C(=O)O` (configuration not stated), the TGI in test [2], in test [3], in [4], in test [5], in test [7] and in test [9] was more than 100 µM in each case. In addition, the TGI in test [10], in test [11] and in test [12] was more than 100 µM each time.
